Data taken from paper PMC9295807 (2022).
One block for each compound: values may come before it.

Columns and labels:
Assay in all cases: in-line probing
[1] = tested on: 92 PRT (RNA, riboswitch) GGAAUCAAACAUCUCUUGUAUAAGCUCGUUAAUUUGGAAUGAGCGUAUCUACAGGCAACCGUAAAUUGCCCCAGGCUACAAGAGGCCAGACAAG; settings: 100 mM K+, 20 mM Mg2+
[2] = tested on: 92 allB (RNA, riboswitch) GGCAGAAUAAGCUCUUGUAUAAGCUCAUUAAUCCGGUUUGAGCGUUUCGACCAGGCGACCGUAAAUUGCCCCAGGCUACAAGAGGUGCAGGAAA; settings: 100 mM K+, 20 mM Mg2+, 100 mM Tris-HCl pH 8.3, room temperature, ~40 h
[3] = tested on: 94 nuc (RNA, riboswitch) GGAAAAAAAAUUAUUUUUCGUAUAUCCUUAAUGAUAUGGUUUAAGGGCAAUACAUAGAAACCACAAAUUUCUUACUGCGAAAAAUAUGCUUCUUUA; settings: 100 mM K+, 20 mM Mg2+; 100 mM Tris-HCl pH 8.3, room temperature, ~40 h

KD [1]: < 8.3 nM
binding ([2]; 100 µM compound): no
SMILES: Nc1nc2[nH]cnc2c(=O)[nH]1

KD [3]: ~ 1.5 μM
SMILES: Nc1nc2c(ncn2[C@H]2C[C@H](O)[C@@H](CO)O2)c(=O)[nH]1

binding ([1]; 100 mM Tris-HCl pH 8.3, room temperature, ~40 h, 100 µM compound): no
KD [2]: ~ 36.5 µM
SMILES: O=c1[nH]c(=O)c2[nH]cnc2[nH]1
